Columns and labels:
[1] = test system: Human immunodeficiency virus 1; experiment: Antiviral activity against HIV1 LAI infected in human CEM-SS cells assessed as inhibition of viral replication after 5 days by MTT assay; type: functional, organism-based; settings: Human immunodeficiency virus 1, LAI, 120 h
[2] = Therapeutic index, ratio of CC50 for human CEM-SS cells to IC50 for HIV1 LAI infected in human CEM-SS cells; type: cell-based; settings: CEM-SS cells (uninfected and infected with HIV1 LAI), read-out: Ratio CC50/IC50
[3] = Cytotoxicity against human CEM-SS cells after 5 days by MTT assay; type: cell-based

| SMILES | IC50 [1] [µM] | selectivity ratio [2] | CC50 at 120 h [3] [µM] |
| --- | --- | --- | --- |
| CN(/N=C/c1ccc(OP2(Oc3ccc(/C=N/N(C)P(=S)(Oc4ccc(/C=C/P(=O)(O)O)cc4)Oc4ccc(/C=C/P(=O)(O)O)cc4)cc3)=NP(Oc3ccc(/C=N/N(C)P(=S)(Oc4ccc(/C=C/P(=O)(O)O)cc4)Oc4ccc(/C=C/P(=O)(O)O)cc4)cc3)(Oc3ccc(/C=N/N(C)P(=S)(Oc4ccc(/C=C/P(=O)(O)O)cc4)Oc4ccc(/C=C/P(=O)(O)O)cc4)cc3)=NP(Oc3ccc(/C=N/N(C)P(=S)(Oc4ccc(/C=C/P(=O)(O)O)cc4)Oc4ccc(/C=C/P(=O)(O)O)cc4)cc3)(Oc3ccc(/C=N/N(C)P(=S)(Oc4ccc(/C=C/P(=O)(O)O)cc4)Oc4ccc(/C=C/P(=O)(O)O)cc4)cc3)=N2)cc1)P(=S)(Oc1ccc(/C=C/P(=O)(O)O)cc1)Oc1ccc(/C=C/P(=O)(O)O)cc1 | 0.65 | > 153 | > 100 |
| CN(/N=C/c1ccc(OP2(Oc3ccc(/C=N/N(C)P(=S)(Oc4ccc(C(O)P(=O)(O)O)cc4)Oc4ccc(C(O)P(=O)(O)O)cc4)cc3)=NP(Oc3ccc(/C=N/N(C)P(=S)(Oc4ccc(C(O)P(=O)(O)O)cc4)Oc4ccc(C(O)P(=O)(O)O)cc4)cc3)(Oc3ccc(/C=N/N(C)P(=S)(Oc4ccc(C(O)P(=O)(O)O)cc4)Oc4ccc(C(O)P(=O)(O)O)cc4)cc3)=NP(Oc3ccc(/C=N/N(C)P(=S)(Oc4ccc(C(O)P(=O)(O)O)cc4)Oc4ccc(C(O)P(=O)(O)O)cc4)cc3)(Oc3ccc(/C=N/N(C)P(=S)(Oc4ccc(C(O)P(=O)(O)O)cc4)Oc4ccc(C(O)P(=O)(O)O)cc4)cc3)=N2)cc1)P(=S)(Oc1ccc(C(O)P(=O)(O)O)cc1)Oc1ccc(C(O)P(=O)(O)O)cc1 (configuration not stated) | 50 | > 2 | > 100 |
| CCCC(C(=O)NCCc1ccc(OP(=S)(Oc2ccc(CCNC(=O)C(CCC)P(=O)(O)O)cc2)N(C)/N=C/c2ccc(OP3(Oc4ccc(/C=N/N(C)P(=S)(Oc5ccc(CCNC(=O)C(CCC)P(=O)(O)O)cc5)Oc5ccc(CCNC(=O)C(CCC)P(=O)(O)O)cc5)cc4)=NP(Oc4ccc(/C=N/N(C)P(=S)(Oc5ccc(CCNC(=O)C(CCC)P(=O)(O)O)cc5)Oc5ccc(CCNC(=O)C(CCC)P(=O)(O)O)cc5)cc4)(Oc4ccc(/C=N/N(C)P(=S)(Oc5ccc(CCNC(=O)C(CCC)P(=O)(O)O)cc5)Oc5ccc(CCNC(=O)C(CCC)P(=O)(O)O)cc5)cc4)=NP(Oc4ccc(/C=N/N(C)P(=S)(Oc5ccc(CCNC(=O)C(CCC)P(=O)(O)O)cc5)Oc5ccc(CCNC(=O)C(CCC)P(=O)(O)O)cc5)cc4)(Oc4ccc(/C=N/N(C)P(=S)(Oc5ccc(CCNC(=O)C(CCC)P(=O)(O)O)cc5)Oc5ccc(CCNC(=O)C(CCC)P(=O)(O)O)cc5)cc4)=N3)cc2)cc1)P(=O)(O)O (configuration not stated) | 1.5 | > 67 | > 100 |
| CCCC(C(=O)NCCc1ccc(OP(=S)(Oc2ccc(CCNC(=O)C(CCC)P(=O)(O)O)cc2)N(C)/N=C/c2ccc(OP3(Oc4ccc(/C=N/N(C)P(=S)(Oc5ccc(CCNC(=O)C(CCC)P(=O)(O)O)cc5)Oc5ccc(CCNC(=O)C(CCC)P(=O)(O)O)cc5)cc4)=NP(Oc4ccc(/C=N/N(C)P(=S)(Oc5ccc(CCNC(=O)C(CCC)P(=O)(O)O)cc5)Oc5ccc(CCNC(=O)C(CCC)P(=O)(O)O)cc5)cc4)(Oc4ccc(/C=N/N(C)P(=S)(Oc5ccc(CCNC(=O)C(CCC)P(=O)(O)O)cc5)Oc5ccc(CCNC(=O)C(CCC)P(=O)(O)O)cc5)cc4)=NP(Oc4ccc(/C=N/N(C)P(=S)(Oc5ccc(CCNC(=O)C(CCC)P(=O)(O)O)cc5)Oc5ccc(CCNC(=O)C(CCC)P(=O)(O)O)cc5)cc4)(Oc4ccc(/C=N/N(C)P(=S)(Oc5ccc(CCNC(=O)C(CCC)P(=O)(O)O)cc5)Oc5ccc(CCNC(=O)C(CCC)P(=O)(O)O)cc5)cc4)=N3)cc2)cc1)P(=O)(O)O.CCCCCCCCCCCCCCCCNOC(CO)C(O)C(OC1OC(CO)C(O)C(O)C1O)C(O)CO.CCCCCCCCCCCCCCCCNOC(CO)C(O)C(OC1OC(CO)C(O)C(O)C1O)C(O)CO.CCCCCCCCCCCCCCCCNOC(CO)C(O)C(OC1OC(CO)C(O)C(O)C1O)C(O)CO.CCCCCCCCCCCCCCCCNOC(CO)C(O)C(OC1OC(CO)C(O)C(O)C1O)C(O)CO.CCCCCCCCCCCCCCCCNOC(CO)C(O)C(OC1OC(CO)C(O)C(O)C1O)C(O)CO.CCCCCCCCCCCCCCCCNOC(CO)C(O)C(OC1OC(CO)C(O)C(O)C1O)C(O)CO (configuration not stated) | 0.33 | 4.5 | 1.5 |
| CCCCCCCCCCC(C(=O)NCCc1ccc(OP(=S)(Oc2ccc(CCNC(=O)C(CCCCCCCCCC)P(=O)(O)O)cc2)N(C)/N=C/c2ccc(OP3(Oc4ccc(/C=N/N(C)P(=S)(Oc5ccc(CCNC(=O)C(CCCCCCCCCC)P(=O)(O)O)cc5)Oc5ccc(CCNC(=O)C(CCCCCCCCCC)P(=O)(O)O)cc5)cc4)=NP(Oc4ccc(/C=N/N(C)P(=S)(Oc5ccc(CCNC(=O)C(CCCCCCCCCC)P(=O)(O)O)cc5)Oc5ccc(CCNC(=O)C(CCCCCCCCCC)P(=O)(O)O)cc5)cc4)(Oc4ccc(/C=N/N(C)P(=S)(Oc5ccc(CCNC(=O)C(CCCCCCCCCC)P(=O)(O)O)cc5)Oc5ccc(CCNC(=O)C(CCCCCCCCCC)P(=O)(O)O)cc5)cc4)=NP(Oc4ccc(/C=N/N(C)P(=S)(Oc5ccc(CCNC(=O)C(CCCCCCCCCC)P(=O)(O)O)cc5)Oc5ccc(CCNC(=O)C(CCCCCCCCCC)P(=O)(O)O)cc5)cc4)(Oc4ccc(/C=N/N(C)P(=S)(Oc5ccc(CCNC(=O)C(CCCCCCCCCC)P(=O)(O)O)cc5)Oc5ccc(CCNC(=O)C(CCCCCCCCCC)P(=O)(O)O)cc5)cc4)=N3)cc2)cc1)P(=O)(O)O (configuration not stated) | 16 | > 6 | > 100 |
| CCCCCCCCCCCCCCCCNOC(CO)C(O)C(OC1OC(CO)C(O)C(O)C1O)C(O)CO.CCCCCCCCCCCCCCCCNOC(CO)C(O)C(OC1OC(CO)C(O)C(O)C1O)C(O)CO.CCCCCCCCCCCCCCCCNOC(CO)C(O)C(OC1OC(CO)C(O)C(O)C1O)C(O)CO.CCCCCCCCCCCCCCCCNOC(CO)C(O)C(OC1OC(CO)C(O)C(O)C1O)C(O)CO.CCCCCCCCCCCCCCCCNOC(CO)C(O)C(OC1OC(CO)C(O)C(O)C1O)C(O)CO.CCCCCCCCCCCCCCCCNOC(CO)C(O)C(OC1OC(CO)C(O)C(O)C1O)C(O)CO.CN(/N=C/c1ccc(OP2(Oc3ccc(/C=N/N(C)P(=S)(Oc4ccc(CCNC(=O)CP(=O)(O)O)cc4)Oc4ccc(CCNC(=O)CP(=O)(O)O)cc4)cc3)=NP(Oc3ccc(/C=N/N(C)P(=S)(Oc4ccc(CCNC(=O)CP(=O)(O)O)cc4)Oc4ccc(CCNC(=O)CP(=O)(O)O)cc4)cc3)(Oc3ccc(/C=N/N(C)P(=S)(Oc4ccc(CCNC(=O)CP(=O)(O)O)cc4)Oc4ccc(CCNC(=O)CP(=O)(O)O)cc4)cc3)=NP(Oc3ccc(/C=N/N(C)P(=S)(Oc4ccc(CCNC(=O)CP(=O)(O)O)cc4)Oc4ccc(CCNC(=O)CP(=O)(O)O)cc4)cc3)(Oc3ccc(/C=N/N(C)P(=S)(Oc4ccc(CCNC(=O)CP(=O)(O)O)cc4)Oc4ccc(CCNC(=O)CP(=O)(O)O)cc4)cc3)=N2)cc1)P(=S)(Oc1ccc(CCNC(=O)CP(=O)(O)O)cc1)Oc1ccc(CCNC(=O)CP(=O)(O)O)cc1 | 0.4 | 4.8 | 1.9 |
| CN(/N=C/c1ccc(OP2(Oc3ccc(/C=N/N(c4ccc(CCN(CP(=O)(O)O)CP(=O)(O)O)cc4)P(O)(=S)Oc4ccc(CCN(CP(=O)(O)O)CP(=O)(O)O)cc4)cc3)=NP(Oc3ccc(/C=N/N(C)P(=S)(Oc4ccc(CCN(CP(=O)(O)O)CP(=O)(O)O)cc4)Oc4ccc(CCN(CP(=O)(O)O)CP(=O)(O)O)cc4)cc3)(Oc3ccc(/C=N/N(C)P(=S)(Oc4ccc(CCN(CP(=O)(O)O)CP(=O)(O)O)cc4)Oc4cccc(CCN(CP(=O)(O)O)CP(=O)(O)O)c4)cc3)=NP(Oc3ccc(/C=N/N(C)P(=S)(Oc4ccc(CCN(CP(=O)(O)O)CP(=O)(O)O)cc4)Oc4ccc(CCN(CP(=O)(O)O)CP(=O)(O)O)cc4)cc3)(Oc3ccc(/C=N/N(C)P(=S)(Oc4ccc(CCN(CP(=O)(O)O)CP(=O)(O)O)cc4)Oc4ccc(CCN(CP(=O)(O)O)CP(=O)(O)O)cc4)cc3)=N2)cc1)P(=S)(Oc1ccc(CCN(CP(=O)(O)O)CP(=O)(O)O)cc1)Oc1ccc(CCN(CP(=O)(O)O)CP(=O)(O)O)cc1 (configuration not stated) | 20 | > 5 | > 100 |
| CCCCCCCCCC(C(=O)NCCc1ccc(OP(=S)(Oc2ccc(CCNC(=O)C(CCCCCCCCC)P(=O)(O)O)cc2)N(C)/N=C/c2ccc(OP3(Oc4ccc(/C=N/N(C)P(=S)(Oc5ccc(CCNC(=O)C(CCCCCCCCC)P(=O)(O)O)cc5)Oc5ccc(CCNC(=O)C(CCCCCCCCC)P(=O)(O)O)cc5)cc4)=NP(Oc4ccc(/C=N/N(C)P(=S)(Oc5ccc(CCNC(=O)C(CCCCCCCCC)P(=O)(O)O)cc5)Oc5ccc(CCNC(=O)C(CCCCCCCCC)P(=O)(O)O)cc5)cc4)(Oc4ccc(/C=N/N(C)P(=S)(Oc5ccc(CCNC(=O)C(CCCCCCCCC)P(=O)(O)O)cc5)Oc5ccc(CCNC(=O)C(CCCCCCCCC)P(=O)(O)O)cc5)cc4)=NP(Oc4ccc(/C=N/N(C)P(=S)(Oc5ccc(CCNC(=O)C(CCCCCCCCC)P(=O)(O)O)cc5)Oc5ccc(CCNC(=O)C(CCCCCCCCC)P(=O)(O)O)cc5)cc4)(Oc4ccc(/C=N/N(C)P(=S)(Oc5ccc(CCNC(=O)C(CCCCCCCCC)P(=O)(O)O)cc5)Oc5ccc(CCNC(=O)C(CCCCCCCCC)P(=O)(O)O)cc5)cc4)=N3)cc2)cc1)P(=O)(O)O.CCCCCCCCCCCCCCCCNOC(CO)C(O)C(OC1OC(CO)C(O)C(O)C1O)C(O)CO.CCCCCCCCCCCCCCCCNOC(CO)C(O)C(OC1OC(CO)C(O)C(O)C1O)C(O)CO.CCCCCCCCCCCCCCCCNOC(CO)C(O)C(OC1OC(CO)C(O)C(O)C1O)C(O)CO.CCCCCCCCCCCCCCCCNOC(CO)C(O)C(OC1OC(CO)C(O)C(O)C1O)C(O)CO.CCCCCCCCCCCCCCCCNOC(CO)C(O)C(OC1OC(CO)C(O)C(O)C1O)C(O)CO.CCCCCCCCCCCCCCCCNOC(CO)C(O)C(OC1OC(CO)C(O)C(O)C1O)C(O)CO (configuration not stated) | 0.31 | 19.7 | 6.1 |
| CN(/N=C/c1ccc(OP2(Oc3ccc(/C=N/N(C)P(=S)(Oc4ccc(CCNC(=O)CP(=O)(O)O)cc4)Oc4ccc(CCNC(=O)CP(=O)(O)O)cc4)cc3)=NP(Oc3ccc(/C=N/N(C)P(=S)(Oc4ccc(CCNC(=O)CP(=O)(O)O)cc4)Oc4ccc(CCNC(=O)CP(=O)(O)O)cc4)cc3)(Oc3ccc(/C=N/N(C)P(=S)(Oc4ccc(CCNC(=O)CP(=O)(O)O)cc4)Oc4ccc(CCNC(=O)CP(=O)(O)O)cc4)cc3)=NP(Oc3ccc(/C=N/N(C)P(=S)(Oc4ccc(CCNC(=O)CP(=O)(O)O)cc4)Oc4ccc(CCNC(=O)CP(=O)(O)O)cc4)cc3)(Oc3ccc(/C=N/N(C)P(=S)(Oc4ccc(CCNC(=O)CP(=O)(O)O)cc4)Oc4ccc(CCNC(=O)CP(=O)(O)O)cc4)cc3)=N2)cc1)P(=S)(Oc1ccc(CCNC(=O)CP(=O)(O)O)cc1)Oc1ccc(CCNC(=O)CP(=O)(O)O)cc1 | 25 | > 4 | > 100 |

Source: ChEMBL document CHEMBL1177694, “Multivalent catanionic GalCer analogs derived from first generation dendrimeric phosphonic acids” (Bioorg Med Chem, 2010)
